Assay results as given in patent US7598245B2 (Vertex Pharmaceuticals Incorporated, priority 2003, dated 2009).

Key:
Type in all cases: biochemical
human Src kinase = biological target: T1, human Src kinase (Homo sapiens, UniProt P12931); assay: Src inhibition assay B: spectrophotometric (uv-vis) coupled enzyme assay; details: 100 μM ATP
T1 construct: 25 nM of recombinant human Src kinase
Experimental: The compounds are evaluated as inhibitors of human Src kinase using either a radioactivity-based assay or spectrophotometric assay.
Src Inhibition Assay B: Spectrophotometric Assay
The ADP produced from ATP by the human recombinant Src kinase-catalyzed phosphorylation of poly Glu-Tyr substrate is quantified using a coupled enzyme assay [Fox et al. Protein Sci. 1998, 7, 2249]. In this assay one molecule of NADH is oxidised to NAD for every molecule of ADP produced in the kinase reaction. The disappearance of NADH is conveniently followed at 340 nm.
The following are the final concentrations of the assay components: 0.025 M HEPES (pH 7.6), 10 mM MgCl2, 2 mM DTT, 0.25 mg/ml poly Glu-Tyr, and 25 nM of recombinant human Src kinase. Final concentrations of the components of the coupled enzyme system are 2.5 mM phosphoenolpyruvate, 200 μM NADH, 30 μg/ml pyruvate kinase and 10 μg/ml lactate dehydrogenase.
In a typical assay, all the reaction components with the exception of ATP are pre-mixed and aliquoted into assay plate wells. Inhibitors dissolved in DMSO are added to the wells to give a final DMSO concentration of 2.5%. The assay plate is incubated at 30° C. for 10 min before initiating the reaction with 100 μM ATP. The absorbance change at 340 nm with time, the rate of the reaction, is monitored on a molecular devices plate reader. The data of rate as a function of the inhibitor concentration is fitted to competitive inhibition kinetics model to get the Ki for the compound.

JAK-3 = biological target: T2, JAK-3 (Homo sapiens, UniProt P52333); assay: JAK3 inhibition assay (ELISA, Poly (Glu, Ala, Tyr) coated plates); details: 2 μM ATP
T2 sequence (P52333 1-1124): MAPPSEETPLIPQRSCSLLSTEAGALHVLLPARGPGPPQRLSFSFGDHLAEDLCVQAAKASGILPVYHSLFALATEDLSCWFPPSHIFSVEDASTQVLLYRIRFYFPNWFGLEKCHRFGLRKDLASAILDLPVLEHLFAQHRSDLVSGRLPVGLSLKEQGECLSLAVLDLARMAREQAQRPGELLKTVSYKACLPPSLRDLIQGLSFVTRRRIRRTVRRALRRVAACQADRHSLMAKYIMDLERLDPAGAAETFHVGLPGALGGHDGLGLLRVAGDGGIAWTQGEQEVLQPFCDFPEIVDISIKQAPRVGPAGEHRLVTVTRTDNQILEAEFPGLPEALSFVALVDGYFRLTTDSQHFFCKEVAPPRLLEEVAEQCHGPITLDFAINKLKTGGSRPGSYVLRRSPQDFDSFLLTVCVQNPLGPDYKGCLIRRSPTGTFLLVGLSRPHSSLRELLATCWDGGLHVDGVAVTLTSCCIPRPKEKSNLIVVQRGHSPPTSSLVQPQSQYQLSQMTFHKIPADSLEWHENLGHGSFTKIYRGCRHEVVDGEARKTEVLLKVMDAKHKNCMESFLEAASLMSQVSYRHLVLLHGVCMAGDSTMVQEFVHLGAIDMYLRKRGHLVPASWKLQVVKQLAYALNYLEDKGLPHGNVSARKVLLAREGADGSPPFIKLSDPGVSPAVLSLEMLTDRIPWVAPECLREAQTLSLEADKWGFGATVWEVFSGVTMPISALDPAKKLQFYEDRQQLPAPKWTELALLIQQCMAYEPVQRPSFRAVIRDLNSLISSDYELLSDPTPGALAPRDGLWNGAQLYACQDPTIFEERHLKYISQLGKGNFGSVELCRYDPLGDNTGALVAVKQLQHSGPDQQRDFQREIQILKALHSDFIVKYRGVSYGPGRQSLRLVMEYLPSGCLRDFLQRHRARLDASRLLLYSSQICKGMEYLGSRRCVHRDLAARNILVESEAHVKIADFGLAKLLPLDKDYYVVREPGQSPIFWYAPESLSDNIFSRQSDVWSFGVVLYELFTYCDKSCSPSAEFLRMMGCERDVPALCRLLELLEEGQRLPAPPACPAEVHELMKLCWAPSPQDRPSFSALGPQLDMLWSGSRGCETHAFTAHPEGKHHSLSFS
Experimental: Compound inhibition of JAK was assayed by the method described by G. R. Brown, et al, Bioorg. Med. Chem. Lett. 2000, vol. 10, pp 575-579 in the following manner. Into Maxisorb plates, previously coated at 4° C. with Poly (Glu, Ala, Tyr) 6:3:1 then washed with phosphate buffered saline 0.05% and Tween-(PBST), was added 2 μM ATP, 5 mM MgCl2, and a solution of compound in DMSO. The reaction was started with JAK enzyme and the plates incubated for 60 minutes at 30° C. The plates were then washed with PBST, 100 μL HRP-Conjugated 4G10 antibody was added, and the plate incubated for 90 minutes at 30° C. The plate was again washed with PBST, 100 μL TMB solution is added, and the plates were incubated for another 30 minutes at 30° C. Sulfuric acid (100 μL of 1M) was added to stop the reaction and the plate is read at 450 nm to obtain the optical densities for analysis to determine Ki values.

KDR = KDR (Homo sapiens, UniProt P35968); assay: Inhibition of KDR, coupled enzyme assay; details: 300 μM ATP, 37° C.
Chain of KDR (P35968 20-1356): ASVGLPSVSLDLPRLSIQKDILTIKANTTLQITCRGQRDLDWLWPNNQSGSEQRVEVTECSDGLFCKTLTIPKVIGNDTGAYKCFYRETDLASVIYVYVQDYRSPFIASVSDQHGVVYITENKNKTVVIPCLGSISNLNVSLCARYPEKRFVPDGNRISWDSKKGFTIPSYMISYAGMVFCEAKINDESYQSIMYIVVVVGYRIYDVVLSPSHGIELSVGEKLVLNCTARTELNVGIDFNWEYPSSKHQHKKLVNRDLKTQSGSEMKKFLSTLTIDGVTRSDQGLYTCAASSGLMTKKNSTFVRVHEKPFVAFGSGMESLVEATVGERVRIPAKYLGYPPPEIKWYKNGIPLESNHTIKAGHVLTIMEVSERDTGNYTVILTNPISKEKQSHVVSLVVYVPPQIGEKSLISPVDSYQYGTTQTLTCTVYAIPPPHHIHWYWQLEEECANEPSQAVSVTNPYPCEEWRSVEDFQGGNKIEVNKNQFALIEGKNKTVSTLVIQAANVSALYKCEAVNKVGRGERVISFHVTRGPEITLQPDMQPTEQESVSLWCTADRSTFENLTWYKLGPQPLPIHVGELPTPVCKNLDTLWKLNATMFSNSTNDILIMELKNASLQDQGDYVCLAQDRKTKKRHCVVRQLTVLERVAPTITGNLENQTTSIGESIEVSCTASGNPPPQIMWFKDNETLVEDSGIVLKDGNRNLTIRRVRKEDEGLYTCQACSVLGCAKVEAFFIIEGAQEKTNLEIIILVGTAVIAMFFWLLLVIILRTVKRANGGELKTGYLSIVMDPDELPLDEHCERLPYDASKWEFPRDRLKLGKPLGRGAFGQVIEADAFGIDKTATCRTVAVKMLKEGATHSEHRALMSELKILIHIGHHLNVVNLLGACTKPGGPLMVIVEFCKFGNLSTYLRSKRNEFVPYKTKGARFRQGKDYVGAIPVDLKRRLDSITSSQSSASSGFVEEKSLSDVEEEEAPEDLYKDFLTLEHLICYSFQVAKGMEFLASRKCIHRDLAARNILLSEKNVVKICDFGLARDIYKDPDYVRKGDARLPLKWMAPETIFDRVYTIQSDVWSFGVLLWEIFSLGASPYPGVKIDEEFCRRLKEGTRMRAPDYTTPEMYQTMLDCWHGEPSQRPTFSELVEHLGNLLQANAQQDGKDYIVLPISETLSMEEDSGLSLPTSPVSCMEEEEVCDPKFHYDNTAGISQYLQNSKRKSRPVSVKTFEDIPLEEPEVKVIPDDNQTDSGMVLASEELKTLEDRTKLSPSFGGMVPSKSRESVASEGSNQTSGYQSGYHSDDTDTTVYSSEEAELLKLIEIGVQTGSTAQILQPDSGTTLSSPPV
Experimental: Compounds were screened for their ability to inhibit KDR using a standard coupled enzyme assay (Fox et al., Protein Sci., (1998) 7, 2249). Assays were carried out in a mixture of 200 mM HEPES 7.5, 10 mM MgCl2, 25 mM NaCl, 1 mM DTT and 1.5% DMSO. Final substrate concentrations in the assay were 300 μM ATP (Sigma Chemicals) and 10 μM poly E4Y (Sigma). Assays were carried out at 37° C. and 30 nM KDR. Final concentrations of the components of the coupled enzyme system were 2.5 mM phosphoenolpyruvate, 200 μM NADH, 30 μg/ML pyruvate kinase and 10 μg/ml lactate dehydrogenase.
An assay stock buffer solution was prepared containing all of the reagents listed above, with the exception of ATP and the test compound of interest. 177 μl of the stock solution was placed in a 96 well plate followed by addition of 3 μl of 2 mM DMSO stock containing the test compound (final compound concentration 30 μM). The plate was preincubated for about 10 minutes at 37° C. and the reaction initiated by addition of 20 μl of ATP (final concentration 300 μM). Rates of reaction were obtained using a Molecular Devices plate reader (Sunnyvale, Calif.) over a 5 minute read time at 37° C.

T1 sequence (P12931 whole entry): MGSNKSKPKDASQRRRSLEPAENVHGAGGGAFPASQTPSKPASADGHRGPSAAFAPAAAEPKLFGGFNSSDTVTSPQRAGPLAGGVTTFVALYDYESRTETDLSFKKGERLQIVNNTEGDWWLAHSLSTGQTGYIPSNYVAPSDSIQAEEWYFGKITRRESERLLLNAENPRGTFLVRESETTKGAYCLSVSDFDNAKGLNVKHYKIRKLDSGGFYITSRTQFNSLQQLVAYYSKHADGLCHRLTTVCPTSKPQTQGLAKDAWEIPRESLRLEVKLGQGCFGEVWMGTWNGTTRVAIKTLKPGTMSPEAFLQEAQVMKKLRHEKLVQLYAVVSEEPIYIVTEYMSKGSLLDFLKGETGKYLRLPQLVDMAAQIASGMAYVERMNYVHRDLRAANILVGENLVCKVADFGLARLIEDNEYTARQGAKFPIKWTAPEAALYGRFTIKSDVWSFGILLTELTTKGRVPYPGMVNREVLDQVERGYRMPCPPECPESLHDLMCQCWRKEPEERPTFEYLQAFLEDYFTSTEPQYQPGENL

Row | SMILES | Ki (human Src kinase) | Ki (JAK-3) | Ki (KDR)
1 | COc1cc(Nc2ncn(-c3ccccc3)n2)cc(OC)c1OC [Compound I-42] | < 500 nM | 10 to 1000 nM | 
2 | COc1cc(Nc2ncn(-c3ccc(C#N)cc3)n2)cc(OC)c1OC [Compound I-43] | < 500 nM | 10 to 1000 nM | 
3 | CC(C)Oc1cccc(Nc2ncn(-c3ccccc3)n2)c1 [Compound I-46] | > 1000 nM | > 1000 nM | 
4 | c1ccc(Nc2ncn(-c3ccnc(NC4CCCCC4)c3)n2)cc1 [Compound I-50] | < 500 nM | 10 to 1000 nM | 100 to 1000 nM
5 | CN(CCO)c1cc(-n2cnc(Nc3ccccc3)n2)ccn1 [Compound I-51] | > 1000 nM | 10 to 1000 nM | < 100 nM
6 | CN(C)CCCN(C)c1cc(-n2cnc(Nc3ccccc3)n2)ccn1 [Compound I-53] | > 1000 nM | > 1000 nM | 100 to 1000 nM
7 | CCN(CCO)c1cc(-n2cnc(Nc3ccccc3)n2)ccn1 [Compound I-54] | < 500 nM | 10 to 1000 nM | < 100 nM
8 | CN(Cc1ccccc1)c1cc(-n2cnc(Nc3ccccc3)n2)ccn1 [Compound I-55] | 500 to 1000 nM | 10 to 1000 nM | 100 to 1000 nM
9 | CN(Cc1cccnc1)c1cc(-n2cnc(Nc3ccccc3)n2)ccn1 [Compound I-57] | 500 to 1000 nM | 10 to 1000 nM | < 100 nM
10 | CCCN(CCO)c1cc(-n2cnc(Nc3ccccc3)n2)ccn1 [Compound I-58] | < 500 nM | 10 to 1000 nM | < 100 nM
11 | COCCN(C)c1cc(-n2cnc(Nc3ccccc3)n2)ccn1 [Compound I-59, (2-methoxy-ethyl)-methyl-[4-(3-phenylamino-[1,2,4]triazol-1-yl)-pyridin-2-yl]-amine] | > 1000 nM | 10 to 1000 nM | < 100 nM
12 | CCN(CC)CCNc1cc(-n2cnc(Nc3ccccc3)n2)ccn1 [Compound I-60] | > 1000 nM | > 1000 nM | > 1000 nM
13 | CN1C(C)(C)CC(Nc2cc(-n3cnc(Nc4ccccc4)n3)ccn2)CC1(C)C [Compound I-61] | < 500 nM | > 1000 nM | 100 to 1000 nM
14 | CC(C)CCN(C)c1cc(-n2cnc(Nc3ccccc3)n2)ccn1 [Compound I-62, methyl-(3-methyl-butyl)-[4-(3-phenylamino-[1,2,4]triazol-1-yl)-pyridin-2-yl]-amine] | 500 to 1000 nM | 10 to 1000 nM | < 100 nM
15 | O=c1[nH]c2ccccc2n1C1CCN(c2cc(-n3cnc(Nc4ccccc4)n3)ccn2)CC1 [Compound I-63] | > 1000 nM | > 1000 nM | > 1000 nM
16 | CC(=O)N1[C@H](C)CN(c2cc(-n3cnc(Nc4ccccc4)n3)ccn2)C[C@@H]1C [Compound I-74] | < 500 nM | < 10 nM | < 100 nM
17 | CCOC(=O)c1ccc(Nc2ncn(-c3ccnc(N4C[C@@H](C)N(C(C)=O)[C@@H](C)C4)c3)n2)cc1 [Compound I-75] | < 500 nM | 10 to 1000 nM | < 100 nM

Other lines, results leading:

Row | Ki (human Src kinase) | Ki (JAK-3) | Ki (KDR) | SMILES
18 | 500 to 1000 nM | > 1000 nM |  | c1ccc(-n2cnc(Nc3ccc4c(c3)OCCO4)n2)cc1 [Compound I-44]
19 | < 500 nM | > 1000 nM |  | CCOc1cccc(Nc2ncn(-c3ccccc3)n2)c1 [Compound I-45]
20 | > 1000 nM | > 1000 nM |  | CCOc1ccc(Nc2ncn(-c3ccccc3)n2)cc1 [Compound I-47]
21 | < 500 nM | 10 to 1000 nM | < 100 nM | c1ccc(Nc2ncn(-c3ccnc(N4CCCCC4)c3)n2)cc1 [Compound I-49, phenyl-[1-(3,4,5,6-tetrahydro-2H-[1,2′]bipyridinyl-4′-yl)-1H-[1,2,4]triazol-3-yl]-amine]
22 | < 500 nM | 10 to 1000 nM | < 100 nM | c1ccc(Nc2ncn(-c3ccnc(N4CCCCCCC4)c3)n2)cc1 [Compound I-52]
23 | 500 to 1000 nM | 10 to 1000 nM | < 100 nM | CC1CCCN1c1cc(-n2cnc(Nc3ccccc3)n2)ccn1 (centres unmarked) [Compound I-56]
24 | > 1000 nM | > 1000 nM | > 1000 nM | O=C(C1CCCO1)N1CCN(c2cc(-n3cnc(Nc4ccccc4)n3)ccn2)CC1 (centres unmarked) [Compound I-64]
25 | < 500 nM | 10 to 1000 nM | 100 to 1000 nM | OC[C@H]1CCCN(c2cc(-n3cnc(Nc4ccccc4)n3)ccn2)C1 [Compound I-65]
26 | > 1000 nM | 10 to 1000 nM | 100 to 1000 nM | CC(=O)N1CCCN(c2cc(-n3cnc(Nc4ccccc4)n3)ccn2)CC1 [Compound I-66]
27 | > 1000 nM | 10 to 1000 nM | 100 to 1000 nM | CCC(=O)N1CCCN(c2cc(-n3cnc(Nc4ccccc4)n3)ccn2)CC1 [Compound I-67]
28 | > 1000 nM | 10 to 1000 nM | > 1000 nM | CCCC(=O)N1CCCN(c2cc(-n3cnc(Nc4ccccc4)n3)ccn2)CC1 [Compound I-68]
29 | > 1000 nM | > 1000 nM | > 1000 nM | CC(C)C(=O)N1CCCN(c2cc(-n3cnc(Nc4ccccc4)n3)ccn2)CC1 [Compound I-69]
30 | > 1000 nM | > 1000 nM | > 1000 nM | CC(C)CC(=O)N1CCCN(c2cc(-n3cnc(Nc4ccccc4)n3)ccn2)CC1 [Compound I-70]
31 | > 1000 nM | 10 to 1000 nM | 100 to 1000 nM | COCC(=O)N1CCCN(c2cc(-n3cnc(Nc4ccccc4)n3)ccn2)CC1 [Compound I-71]
32 | 500 to 1000 nM | 10 to 1000 nM | 100 to 1000 nM | N#CCC(=O)N1CCCN(c2cc(-n3cnc(Nc4ccccc4)n3)ccn2)CC1 [Compound I-72]
33 | < 500 nM | < 10 nM | < 100 nM | c1ccc(Nc2ncn(-c3ccnc(N4CCCCCC4)c3)n2)cc1 [Compound I-73]
34 | > 1000 nM | > 1000 nM |  | CN1CCN(c2ccc(Nc3ncn(-c4ccccc4)n3)cn2)CC1 [Compound I-135]
